The source of these data is publication PMC7072329, “Discovery of Kynurenines Containing Oligopeptides as Potent Opioid Receptor Agonists” (Biomolecules, 2020).

Like-named read-outs stand apart in the source and are kept apart here. Where a SMILES comes first, the peptide text is derived from it. [ ]: non-standard residue; d: D form. Kyn = Nc1ccccc1C(=O)C[C@H](N)C(=O)O

The test system of assay [1] is CD-1 male mice. The experiment in a line: formalin test. The following applies: s.c. in hind paw, 100 μg/20 μL, 15 min before formalin. Type of assay: in vivo. As for the experimental part: (§1) In our experiments, we used CD-1 male mice (Harlan, Italy, 25–30 g) maintained in colony, housed in cages (7 mice per cage) under standard light/dark cycle (from 7:00 a.m. to 7:00 p.m.), temperature (21 ± 1 °C) and relative humidity (60% ± 10%) for at least 1 week. Food and water were available ad libitum. The Service for Biotechnology and Animal Welfare of the Istituto Superiore di Sanità and the Italian Ministry of Health authorized the experimental protocol according to Legislative Decree 26/14.
DMSO was purchased from Merck (Rome, Italy). Peptides solutions were freshly prepared using saline containing 0.9% NaCl and DMSO in the ratio DMSO/saline 1:5 v/v every experimental day. These solutions were injected at a volume of 10 μL/mouse for intracerebroventricular (i.c.v.) administrations or at a volume of 20 μL/mouse for subcutaneous administrations.
In the formalin test, the injection of a dilute solution of formalin (1%, 20 μL/paw) into the dorsal surface of the mouse hind paw evoked biphasic nociceptive behavioral responses, such as licking, biting the injected paw, or both, occurring from 0 to 10 min after formalin injection (the early phase) and a prolonged phase, occurring from 15 to 40 min (the late phase). Before the test, mice were individually placed in a Plexiglas observation cage (30 × 14 × 12 cm) for one hour, to acclimatize to the testing environment. The total time the animal spent licking or biting its paw during the early and late phase of formalin-induced nociception was recorded.
Experimental data were expressed as mean ± s.e.m. In the tail flick test, significant differences among the groups were evaluated with two-way ANOVA followed by Sidak’s multiple comparisons test. Formalin test data were analyzed by using one-way ANOVA, followed by Holm–Sidak’s multiple comparisons test. […] Statistical significance was set at p < 0.05. The data and statistical analysis comply with the recommendations on experimental design and analysis in pharmacology.
Early phase represents the formalin-induced nociceptive behavior recorded from 0 to 10 min after formalin injection; late phase is for the formalin-induced nociceptive behavior recorded from 15 to 40 min after formalin injection. V is for vehicle-treated animals. Statistical analysis: one-way ANOVA followed by Holm–Sidak’s multiple comparisons test. ** is for p < 0.01 and *** is for p < 0.001 vs. V. n = 7.

The subject of assay [2] is CD-1 male mice. The experiment in a line: tail flick test. Type of assay: in vivo. Conditions: i.c.v., 10 μg/10 μL, 15 to 120 min. As for the experimental part: as §1
DMSO was purchased from Merck (Rome, Italy). Peptides solutions were freshly prepared using saline containing 0.9% NaCl and DMSO in the ratio DMSO/saline 1:5 v/v every experimental day. […]
The tail flick latency was obtained using a commercial unit (Ugo Basile, Gemonio, Italy), consisting of an infrared radiant light source (100 W, 15 V bulb) focused onto a photocell utilizing an aluminum parabolic mirror. […] Radiant heat was focused 3–4 cm from the tip of the tail, and the latency (s) of the tail withdrawal to the thermal stimulus was recorded. […] The baseline latency was calculated as mean of three readings recorded before testing at intervals of 15 min and the time course of latency determined at 15, 30, 45, 60, 90, and 120 min after treatment. […]
Experimental data were expressed as mean ± s.e.m. […]

The subject of the next assay is μ, δ, κ-receptors. The arrangement: method as in PMID 25478797. The following applies: cited from earlier work.
Assay [3] concerns the target NMDA receptor. The experiment in a line: [3H]MK-801 competition binding, rat brain membrane. The following applies: read-out: Ki + S.E.M., displacement of [3H]MK-801.
In assay [4] the test system is NMDA receptor. More on the design: method as in earlier work. The following applies: cited from earlier work.
For assay [5], the system named is G-protein. The experiment in a line: functional [35S]GTPγS binding, guinea pig brain membrane homogenates. In kind it is biochemical. The following applies: ligand alone. As for the experimental part:
(§2) Rats and guinea pigs were decapitated, and their brains were quickly removed. The brains were used for membrane preparation following the procedure reported by Benyhe for binding and [^35S]GTPγS binding experiments, in agreement with the protocol of Zádor et al..
(§3) Homogenization of brains was performed in 30 volumes (v/w) of ice-cold 50 mM Tris-HCl pH 7.4 buffer with a Teflon-glass Braun homogenizer at 1500 rpm. The centrifuge was settled at 18,000 rpm for 20 min at 4 °C, the resulting supernatant discarded, and the pellet taken up in the original volume of Tris-HCl buffer. Incubation of homogenate at 37 °C for 30 min was performed in a shaking water-bath. Five volumes of 50 mM Tris-HCl pH 7.4 buffer were used to suspend the final pellet at −80 °C. For the [^35S]GTPγS binding experiments, the brains were homogenized with a Dounce in 5 volumes (v/w) of ice-cold TEM (Tris-HCl, EGTA, MgCl2) at −80 °C. The protein content of the membrane preparation was determined by the method of Bradford, BSA being used as a standard.
(§4) The functional [^35S]GTPγS binding experiments were performed as previously described. Briefly the membrane homogenates were incubated at 30 °C for 60 min in Tris-EGTA buffer (pH 7.4) composed of 50 mM Tris-HCl, 1 mM EGTA, 3 mM MgCl2, 100 mM NaCl, containing 20 MBq/0.05 cm^3 [^35S]GTPγS (0.05 nM) and increasing concentrations (10^−10 to 10^−5 M) of ligands. The experiments were performed in the presence of excess GDP (30 μM) in a final volume of 1 mL. Total binding was measured in the absence of test compounds, non-specific binding was determined in the presence of 10 μM unlabeled GTPγS. The reaction was terminated by rapid filtration under vacuum and washed three times with 5 mL ice-cold 50 mM Tris-HCl (pH 7.4) buffer through Whatman GF/B glass fibers. The radioactivity of the filters was detected in an UltimaGold^TM MV aqueous scintillation cocktail with a Packard Tricarb 2300TR liquid scintillation counter.
(§5) Experimental data are presented as means ± S.E.M. Sigmoid dose-response curves were fitted with GraphPad Prism 5.0 (GraphPad Prism Software Inc., San Diego, CA, USA). An unpaired t-test with two-tailed p value was performed to determine the significance level. In the competition binding assays, the ‘One site competition’ fitting was used to establish the equilibrium binding affinity (Ki value).
Figure S3. The effect of novel oligopeptides on G-protein activity in [35S]GTPγS binding assays in the absence or presence of the selective MOR antagonist cyprodime (Cyp) and the selective DOR antagonist naltrindole (NTI) in rat brain membrane homogenates (Figure A) and the selective KOR antagonist norbinaltorphine (nor-BNI) in guinea pig brain membrane homogenates (Figure B). […]
Background: GTPγS is a poorly hydrolysed GTP analogue; its binding reports G protein activation.

A further assay concerns the target T1, δ-opioid receptor (Rattus norvegicus, UniProt P33533).
T1 construct: aliquots of frozen rat and guinea pig brain membrane homogenates were thawed and suspended in 50 mM Tris-HCl buffer; from tissue; host or cells: Wistar rat brain membrane homogenate
The assay can be described thus: biochemical. The following applies: DOR; rat brain membrane; from IC50 by Cheng–Prusoff; read-out: Ki + S.E.M., displacement of [3H]Ile5,6Delt II. In kind it is binding. For orientation: In a radioligand displacement assay an active substance lowers the binding of a labelled ligand.

For assay [6], the target named is G-protein. The assay can be described thus: functional [35S]GTPγS binding, rat brain membrane homogenates. The following applies: for Potency Log EC50 ± S.E.M. / Maximal Stimulation (Efficacy) Emax ± S.E.M.: dose-response curves; for Maximal Stimulation (Efficacy) Emax ± S.E.M.: basal = 100%; for Emax + S.E.M., Ligand: ligand alone, bar graphs Figure S3. Type of assay: biochemical. As for the experimental part: as §2, §3, §4, §5
[35S]GTPγS binding assay in rat brain membrane homogenates. Figure S2 represents the specific binding of [35S]GTPγS in percentage in presence of increasing concentrations (10-10 - 10^-5 M) of the indicated ligands. “Total” on the x-axis indicates the basal activity of the monitored G-protein, which is measured in the absence of the ligands and represents the total specific binding of [35S]GTPγS. The level of basal activity was defined as 100% and it is presented with a dotted line. Points represent means ± S.E.M. for at least three experiments […]
Figure S3. The effect of novel oligopeptides on G-protein activity in [35S]GTPγS binding assays in the absence or presence of the selective MOR antagonist cyprodime (Cyp) and the selective DOR antagonist naltrindole (NTI) in rat brain membrane homogenates (Figure A) and the selective KOR antagonist norbinaltorphine (nor-BNI) in guinea pig brain membrane homogenates (Figure B). The level of basal activity was defined as 100% and it is presented with a dotted line. Points represent means ± S.E.M. for at least three experiments performed

Another assay addresses T2, κ-opioid receptor (Cavia porcellus, UniProt P41144).
T2 construct: aliquots of frozen rat and guinea pig brain membrane homogenates were thawed and suspended in 50 mM Tris-HCl buffer; from tissue; host or cells: guinea pig brain membrane homogenate
The assay can be described thus: biochemical. Type of assay: binding. Conditions: KOR; guinea pig brain membrane; from IC50 by Cheng–Prusoff; read-out: Ki + S.E.M., displacement of [3H]HS665.

Details of assay [7]: method as in PMID 21598333. The following applies: cited from earlier work.
Setting [8] is: NMDA system, rat brain membrane, from IC50 by Cheng–Prusoff.

T2 sequence (P41144 whole entry): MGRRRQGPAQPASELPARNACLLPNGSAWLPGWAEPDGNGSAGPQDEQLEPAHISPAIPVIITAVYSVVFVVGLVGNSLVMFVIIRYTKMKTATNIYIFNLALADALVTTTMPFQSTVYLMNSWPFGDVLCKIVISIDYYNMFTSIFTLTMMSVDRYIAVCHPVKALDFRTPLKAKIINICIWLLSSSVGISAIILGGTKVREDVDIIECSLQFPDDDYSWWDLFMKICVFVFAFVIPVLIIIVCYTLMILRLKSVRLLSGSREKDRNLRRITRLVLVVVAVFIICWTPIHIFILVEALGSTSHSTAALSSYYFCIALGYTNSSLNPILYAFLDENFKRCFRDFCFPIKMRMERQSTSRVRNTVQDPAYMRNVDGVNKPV
T1 sequence (P33533 whole entry): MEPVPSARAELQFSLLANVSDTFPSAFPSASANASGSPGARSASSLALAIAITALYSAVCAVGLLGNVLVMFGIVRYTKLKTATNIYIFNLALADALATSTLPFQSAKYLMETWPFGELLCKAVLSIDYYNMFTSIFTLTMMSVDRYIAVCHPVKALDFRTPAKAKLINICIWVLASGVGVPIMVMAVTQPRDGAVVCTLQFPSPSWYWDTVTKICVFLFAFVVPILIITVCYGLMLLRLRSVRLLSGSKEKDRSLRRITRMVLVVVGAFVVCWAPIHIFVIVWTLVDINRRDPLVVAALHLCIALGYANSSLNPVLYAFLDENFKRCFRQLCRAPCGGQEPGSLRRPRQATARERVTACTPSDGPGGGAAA

For `C[C@@H](NC(=O)[C@@H](N)Cc1ccc(O)cc1)C(=O)NCC(=O)N(C)[C@@H](Cc1ccccc1)C(=O)NCCO` [DAMGO, Tyr-D-Ala-Gly-(NMe)Phe-Gly-ol, reference compound], the “formalin-induced nociceptive behavior, early phase” value in the assay on CD-1 male mice [1] (0 to 10 min) was “reduction of the nociceptive behavior both early and late”. Besides, in the assay on CD-1 male mice [1] (15 to 40 min), the “formalin-induced nociceptive behavior, late phase” value is “reduction of the nociceptive behavior both early and late”. Also, in the assay on CD-1 male mice [2], the “effect on time of response to thermal nociceptive stimuli (tail flick)” value is “greatly increase the time of response to thermal nociceptive stimuli”.
As for `CN(C)CCNC(=O)c1cc(=O)c2ccccc2[nH]1.Cl` [KYNA1], in the assay on μ, δ, κ-receptors, the “direct binding to μ, δ, κ-receptors in vitro” value is “did not directly bind”.
For the compound `O=C(O)c1cc(=O)c2ccccc2[nH]1` [KYNA, kynurenic acid], at NMDA receptor [3] (setting [8]), the Ki (commonly a measure of affinity in units of concentration, obtained from inhibition or displacement) is over 10 µM. In the assay with NMDA receptor [4], the “affinity for NMDA receptor” value is recorded as “micromolar affinity”. Also, the “direct binding to μ, δ, κ-receptors in vitro” value with μ, δ, κ-receptors was “did not directly bind”.
Turning to `Nc1ccccc1C(=O)C[C@H](N)C(=O)O` [L-kyn, L-kynurenine, reference compound], at NMDA receptor [3] (setting [8]), the inhibitory constant (Ki) is over 10 µM.
In the case of `NC(=O)[C@H](Cc1ccccc1)NC(=O)[C@H](CC(=O)c1ccccc1N)NC(=O)[C@@H]1CCCN1C(=O)[C@@H](N)Cc1ccc(O)cc1` [Peptide K2], the inhibition constant (Ki) is over 10 µM on NMDA receptor [3], over 10 µM on δ-opioid receptor and 1.043 ± 0.0003 µM on κ-opioid receptor. The “Emax + S.E.M., Ligand” value in the assay on G-protein [5] is on record as 92.8 ± 2.0%; in the assay with G-protein [6], 129.9 ± 8.2%. Further, the “Potency Log EC50 ± S.E.M.” value on G-protein [6] was −7.535 ± 0.354. In addition, the “Maximal Stimulation (Efficacy) Emax ± S.E.M.” value (from here on “Maximal Stimulation”) in the assay on G-protein [6] worked out at 121.6 ± 2.5%.
`NC(=O)[C@H](CC(=O)c1ccccc1N)NC(=O)[C@H](Cc1ccccc1)NC(=O)[C@@H]1CCCN1C(=O)[C@@H](N)Cc1ccc(O)cc1` [Peptide K3] (H-YPF[Kyn]-NH2): the inhibitory constant (Ki) was over 10 µM at NMDA receptor [3], 0.159 ± 0.0016 µM at δ-opioid receptor and over 10 µM on κ-opioid receptor. For the same compound, the “Emax + S.E.M., Ligand” value with G-protein [5] is listed as 95.2 ± 2.2%; with G-protein [6], 118.9 ± 3.0%. Besides, the “Potency Log EC50 ± S.E.M.” value on G-protein [6] is given as −6.993 ± 0.422. In addition, the “Maximal Stimulation” value with G-protein [6] was found to be 114.0 ± 2.1%.
With `COC(=O)[C@H](CC(=O)c1ccccc1N)NC(=O)[C@H](Cc1ccccc1)NC(=O)CNC(=O)[C@@H](C)NC(=O)[C@@H](N)Cc1ccc(O)cc1` [Peptide K4] (H-Y[dA]GF[Kyn]-OMe), the inhibition constant Ki on NMDA receptor [3] and on κ-opioid receptor was over 10 µM in each case. Further, the figures for the “Emax + S.E.M., Ligand” value in the assay on G-protein [5] and with G-protein [6] were 125.2 ± 2.0% and 160.6 ± 5.7%, respectively. Moreover, the “Potency Log EC50 ± S.E.M.” value at G-protein [6] is listed as −6.073 ± 0.172. In the assay with G-protein [6], the “Maximal Stimulation” value was 155.5 ± 4.8%.
For the compound `C[C@@H](NC(=O)[C@@H](N)Cc1ccc(O)cc1)C(=O)NCC(=O)N[C@@H](Cc1ccccc1)C(=O)N[C@@H](CC(=O)c1ccccc1N)C(=O)O` [Peptide K5] (H-Y[dA]GF[Kyn]-OH), the Ki on κ-opioid receptor was over 10 µM.
Consider FP-Kyn-L-NH2, for which the “concentration with opioid activity” value in [7] is reported as 10^−7 M.
